This passage reports T/C results from PubChem BioAssay AID192 (DTP/NCI, 2004).

“And” between values parts separate entries of the source, which are not always exact repeats. Equal entries are not always repeated. Toxic doses and inconclusive results are not listed.

The assay relates to BDF1 mice, B16 melanoma ip, median survival T/C. The experiment in a line: NCI In Vivo Anticancer Drug Screen. Data for tumor model B16 Melanoma (intraperitoneal) in B6D2F1 (BDF1) mice. The following applies: endpoint: median survival time, higher = longer survival. The method, boiled down:
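Compounds were tested in mice carrying transplantable tumors. Survival or tumor size was recorded, and each value is the treated-group measurement (T) divided by that of the vehicle-treated control group (C).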

[1] abbreviates: dose: 100.0 mg/kg/injection, schedule: Q01DX009 (ip), vehicle: Klucel (hydroxypropylcellulose) (HPC).
The mark [2] stands for this setting: dose: 200.0 mg/kg/injection, schedule: Q01DX009 (ip), vehicle: Klucel (hydroxypropylcellulose) (HPC).
[3] abbreviates: dose: 400.0 mg/kg/injection, schedule: Q01DX009 (ip), vehicle: Klucel (hydroxypropylcellulose) (HPC).
The mark [4] stands for this setting: dose: 25.0 mg/kg/injection, schedule: Q01DX009 (ip), vehicle: Klucel (hydroxypropylcellulose) (HPC).
[5] abbreviates: dose: 50.0 mg/kg/injection, schedule: Q01DX009 (ip), vehicle: Klucel (hydroxypropylcellulose) (HPC).
Setting [6] is: dose: 50.0 mg/kg/injection, schedule: Q01DX009 (ip), vehicle: saline.
Where [7] appears, read: dose: 100.0 mg/kg/injection, schedule: Q01DX009 (ip), vehicle: saline.
The mark [8] stands for this setting: dose: 200.0 mg/kg/injection, schedule: Q01DX009 (ip), vehicle: saline.
Where [9] appears, read: dose: 50.0 mg/kg/injection, schedule: Q01DX009 (ip), vehicle: saline with Tween-80.
[10] abbreviates: dose: 100.0 mg/kg/injection, schedule: Q01DX009 (ip), vehicle: saline with Tween-80.
The mark [11] stands for this setting: dose: 6.25 mg/kg/injection, schedule: Q01DX009 (ip), vehicle: saline with Tween-80.
The mark [12] stands for this setting: dose: 12.5 mg/kg/injection, schedule: Q01DX009 (ip), vehicle: saline with Tween-80.
[13] abbreviates: dose: 25.0 mg/kg/injection, schedule: Q01DX009 (ip), vehicle: saline with Tween-80.

As for `CCCCNC(=S)S`, the T/C runs as follows: (dose: 100.0 mg/kg/injection, schedule: Q01DX009 (ip), vehicle: other) 90 % of control; (dose: 200.0 mg/kg/injection, schedule: Q01DX009 (ip), vehicle: other) 94 % of control.

For the compound `CCC[CH2][Sn]([CH2]CCC)([S]C#N)[S]C#N`, the T/C is, setting by setting: (dose: 0.75 mg/kg/injection, schedule: Q01DX009 (ip), vehicle: saline with Tween-80) 98 % of control; (dose: 1.5 mg/kg/injection, schedule: Q01DX009 (ip), vehicle: saline with Tween-80) 101 % of control; (dose: 3.0 mg/kg/injection, schedule: Q01DX009 (ip), vehicle: saline with Tween-80) 98 % of control.

With `CC(=O)[O][Pb]([CH2]CC(C)C)([CH2]CC(C)C)[CH2]CC(C)C`, the T/C runs as follows: (dose: 0.75 mg/kg/injection, schedule: Q01DX009 (ip), vehicle: Klucel (hydroxypropylcellulose) (HPC)) 100 % of control; (dose: 1.5 mg/kg/injection, schedule: Q01DX009 (ip), vehicle: Klucel (hydroxypropylcellulose) (HPC)) 86 % of control.

Regarding `O=C1c2ccccc2C(=O)c2c1ccc(C(=O)O)c2-c1ccc2ccccc2c1`, the T/C is 103 % of control under setting [1], 99 % of control under setting [2] and 96 % of control under setting [3].

Regarding `COc1cccc2c1CCC1=C2CC=C2CC3(CCC21C)OCCO3` (stereo unspecified), the T/C is 104 % of control (dose: 100.0 mg/kg/injection, schedule: Q04DX003 (sc), vehicle: steriod suspending solution); 86 % of control (dose: 200.0 mg/kg/injection, schedule: Q04DX003 (sc), vehicle: steriod suspending solution); 97 % of control (dose: 400.0 mg/kg/injection, schedule: Q04DX003 (sc), vehicle: steriod suspending solution).

Regarding `Cc1cc(OC(=O)c2ccc(N(C)C)cc2)ccc1[N+](=O)[O-]`, the T/C under setting [4] was 92 % of control, the T/C under setting [5] was 92 % of control and the T/C under setting [1] is 88 % of control.

As to `Cn1c(=O)[nH]c2nncnc2c1=O`, the T/C (dose: 0.37 mg/kg/injection, schedule: Q01DX009 (ip), vehicle: water) is 99 % of control; the T/C (dose: 0.75 mg/kg/injection, schedule: Q01DX009 (ip), vehicle: water) is 118 % of control; the T/C (dose: 1.5 mg/kg/injection, schedule: Q01DX009 (ip), vehicle: water) is 103 % of control; the T/C (dose: 3.0 mg/kg/injection, schedule: Q01DX009 (ip), vehicle: water) was 99 % of control.

In the case of `C[C@H](CCC(=O)O)[C@H]1CC[C@H]2[C@@H]3[C@H](O)C[C@@H]4C[C@H](O)CC[C@]4(C)[C@H]3C[C@H](O)[C@]12C` (tested in a mixture with another compound), the T/C is 102 % of control under setting [6], 109 % of control under setting [7] and 111 % of control under setting [8].

As to `Cc1cc(Cl)ccc1NC(=O)c1ccc([N+](=O)[O-])cc1`, the T/C was 104 % of control under setting [9]; 100 % of control under setting [10]; 103 % of control (dose: 200.0 mg/kg/injection, schedule: Q01DX009 (ip), vehicle: saline with Tween-80).

For the compound `Nc1ccc(N(CCCl)CCN(CCCl)c2ccc(N)cc2)cc1`, the T/C runs as follows: (dose: 0.36 mg/kg/injection, schedule: Q01DX009 (ip), vehicle: saline) 108 % of control; (dose: 0.75 mg/kg/injection, schedule: Q01DX009 (ip), vehicle: saline) 113 % of control; (dose: 1.5 mg/kg/injection, schedule: Q01DX009 (ip), vehicle: saline) 113 % of control; (dose: 3.0 mg/kg/injection, schedule: Q01DX009 (ip), vehicle: saline) 119 % of control.

In the case of `CC(C)=CC(=O)OC1C2C(C)C(=O)OC2C(O)C(C)C2C=CC(=O)C21C` (stereo unspecified), the T/C by setting is: (dose: 6.25 mg/kg/injection, schedule: Q01DX009 (ip), vehicle: Klucel (hydroxypropylcellulose) (HPC)) 95 % of control; under setting [11], 91 % of control; (dose: 12.5 mg/kg/injection, schedule: Q01DX009 (ip), vehicle: Klucel (hydroxypropylcellulose) (HPC)) 97 % of control; under setting [12], 94 % of control; under setting [4], 93 % of control and 99 % of control; under setting [13], 97 % of control.

On to `C=C1C(=O)OCC1(C(=O)OCC)C(=O)OCC`, for which the T/C (dose: 4.0 mg/kg/injection, schedule: Q01DX009 (ip), vehicle: saline with Tween-80) is 109 % of control; the T/C (dose: 8.0 mg/kg/injection, schedule: Q01DX009 (ip), vehicle: saline with Tween-80) is 97 % of control; the T/C (dose: 16.0 mg/kg/injection, schedule: Q01DX009 (ip), vehicle: saline with Tween-80) was 89 % of control.

Regarding `CC(=O)CC(C)=O.CC(=O)CC(C)=O.[Co]`, the T/C runs as follows: under setting [11], 97 % of control; under setting [12], 102 % of control; under setting [13], 91 % of control.

Take `O=CC(O)C(O)C(O)C(O)C(=O)O.[NH-]C1CCCCC1[NH-].[Pt+2]` (stereo unspecified): the T/C runs as follows: (dose: 0.2 mg/kg/injection, schedule: Q01DX009 (ip), vehicle: saline) 105 % of control; (dose: 1.56 mg/kg/injection, schedule: Q01DX009 (ip), vehicle: saline) 162 % of control.

Take `O=C1CC(NC(=O)OCc2ccccc2)C(=O)O1` (stereo unspecified): the T/C was 111 % of control (dose: 100.0 mg/kg/injection, schedule: Q01DX009 (ip), vehicle: alcohol) and 94 % of control (dose: 200.0 mg/kg/injection, schedule: Q01DX009 (ip), vehicle: alcohol).

Take `COc1ccc(CC(CO)C(CO)Cc2ccc(OC)c(OC)c2)cc1OC` (stereo unspecified): the T/C is 93 % of control under setting [1], 100 % of control under setting [2] and 103 % of control under setting [3].

As for `COc1ccccc1N=Nc1c(O)ccc2ccccc12`, the T/C is, setting by setting: under setting [13], 101 % of control; under setting [9], 112 % of control; under setting [10], 108 % of control.

Consider `CN(C)CCCN1c2ccccc2CCc2ccc(Cl)cc21`, for which the T/C is, setting by setting: (dose: 6.25 mg/kg/injection, schedule: Q01DX009 (ip), vehicle: saline) 101 % of control; (dose: 12.5 mg/kg/injection, schedule: Q01DX009 (ip), vehicle: saline) 108 % of control; (dose: 25.0 mg/kg/injection, schedule: Q01DX009 (ip), vehicle: saline) 115 % of control; under setting [6], 98 % of control.

Turning to `CCOC(=O)C(OCC)P(=O)(OCC)OCC` (stereo unspecified), the T/C reads like this: under setting [4], 95 % of control; under setting [5], 95 % of control; under setting [1], 107 % of control; under setting [2], 102 % of control; under setting [3], 100 % of control.

`CC(=O)[C@@]1(O)CC[C@H]2[C@@H]3C[C@H](C)C4=CC(=O)C=C[C@]4(C)[C@@]3(F)[C@@H](O)C[C@@]21C`: the T/C reads like this: (dose: 25.0 mg/kg/injection, schedule: Q01DX009 (sc), vehicle: steriod suspending solution) 102 % of control; (dose: 50.0 mg/kg/injection, schedule: Q01DX009 (sc), vehicle: steriod suspending solution) 107 % of control.

Regarding `CCOC(=O)CCc1ccc(O)c(O)c1`, the T/C is, setting by setting: (dose: 37.5 mg/kg/injection, schedule: Q04DX003 (ip), vehicle: saline) 102 % of control; under setting [6], 113 % of control; (dose: 75.0 mg/kg/injection, schedule: Q04DX003 (ip), vehicle: saline) 102 % of control; under setting [7], 110 % of control; (dose: 150.0 mg/kg/injection, schedule: Q04DX003 (ip), vehicle: saline) 97 % of control; under setting [8], 97 % of control.

With `CN(C)N=Nc1ccnc2c(Cl)cccc12`, the T/C was 101 % of control (dose: 10.8 mg/kg/injection, schedule: Q01DX009 (ip), vehicle: DMSO); 103 % of control (dose: 18.0 mg/kg/injection, schedule: Q01DX009 (ip), vehicle: DMSO); 101 % of control (dose: 30.0 mg/kg/injection, schedule: Q01DX009 (ip), vehicle: DMSO); 99 % of control (dose: 50.0 mg/kg/injection, schedule: Q01DX009 (ip), vehicle: DMSO).

Turning to `CCOc1ccc(NC(=O)C2CCC(C)(C(=O)O)C2(C)C)cc1` (stereo unspecified), the T/C is, setting by setting: (dose: 66.0 mg/kg/injection, schedule: Q01DX009 (ip), vehicle: saline with Tween-80) 88 % of control; under setting [10], 100 % of control; (dose: 150.0 mg/kg/injection, schedule: Q01DX009 (ip), vehicle: saline with Tween-80) 113 % of control.
